{"source": "patent US9636299B2", "about": "“Method for treating diabetic retinopathy” (XAVIER UNIVERSITY OF LOUISIANA, priority 2012, dated 2017)", "key": {"[1]": {"system": "VEGF-induced ocular angiogenesis", "details": "rabbit eye model, reference 17; cited from earlier work"}, "heparanase [2]": {"system": "heparanase", "test": "Laser photocoagulation-induced retinal injury in mice, heparanase real-time RT-PCR", "format": "in vivo, mouse", "details": "apoEdp 40 mg/kg intraperitoneally once each day for 7 days, vs mice without apoEdp", "procedure": "(§1) Laser Photocoagulation-Induced Retinopathy. Female mice (C57BL/6J), aged 6-8 weeks, were used for retinal laser photocoagulation studies. The mice were treated and maintained in accordance with the ARVO Statement for the Use of Animals in Ophthalmic and Vision Research. The mice were anesthetized by intraperitoneal injection of a mixture of ketamine (100 mg/kg; Warner Lambert Co., Morris Plains, N.J.) and xylazine (10 mg/kg; Bayer AG, Leverkusen, Germany), and the pupils dilated with 2.5% tropicamide (Alcon, Fort Worth, Tex.). […]\n(§2) RNA Extraction, Reverse Transcription, & PCR. […] Gene expression was measured at RNA level per 100 ng of total RNA using one-step RT-PCR kit (Bio-Rad, Hercules, Calif.). Four host genes (mouse GAPDH, mouse MMP2, mouse HPSE-1 (heparanase-1), and mouse MMP9) were analyzed to confirm relative quantitative expression levels. The primer pairs used were specifically designed and synthesized by Qiagen GmbH, Hilden, Germany (Quantitech Primer assay kit, for each host gene, catalog numbers QT01658692, QT00088396, QT00009555, and QT00040040, respectively). One-step Real-time quantitative RT-PCR reactions were performed in a 50-μL volume containing a solution of 1× supermix (iQ SYBR Green; Bio-Rad, Hercules, Calif.), 1 μM mix of forward and reverse primers, and 5 μL total RNA. […] Relative quantitative expression levels were determined for each gene. […]"}, "MMP9": {"system": "MMP9", "test": "Laser photocoagulation-induced retinal injury in mice, MMP9 real-time RT-PCR", "format": "in vivo, mouse", "details": "apoEdp 40 mg/kg intraperitoneally once each day for 7 days, vs mice without apoEdp", "procedure": "as §1, §2"}, "heparanase [3]": {"system": "heparanase", "test": "Heparanase expression in high glucose-treated hRMECs (Western blot)", "format": "cell-based, human", "details": "30 mM glucose 72 hours, 50 or 100 μM apoEdp", "excerpt": "Cell Culture. Primary cultures of human retina microvascular endothelial cells (hRMECs) were purchased from the Applied Cell Biology Research Institute and grown on attachment factor-coated plates in cell systems complete (CSC) medium (Cell Systems, Kirkland, Wash.) supplemented with 20% fetal bovine serum, culture boost (animal derived growth factors) and bac-off (antibiotics). The primary hRMECs were used in their passages 4 to 6. The 18-a.a. apoE mimetic peptide apoEdp (SEQ ID NO:3, Ac-LRKLRKRLLLRKLRKRLL-amide), derived from the human apolipoprotein E receptor-binding region (see SED ID NO:1) between residues 141 and 149, was synthesized (Genemed, Arlington, Tex.) with a purity of greater than 95%. The apoEdp peptide was dissolved in phosphate-buffered saline (“PBS”) at a concentration appropriate for further experimental use. […]\nWestern Blotting. […] The total protein concentration was determined using a BCA protein assay kit (Pierce, Rockford, Ill.). […] To ensure the equal loading of protein in each lane, each membrane was stripped and re-probed with an antibody against β-actin, and the chemiluminescence was detected as described previously. After scanning the blots with a flatbed scanner, band intensities were analyzed using ImageJ (NIH) and the relative intensity values were normalized to control values. […]"}}, "note": "Residues, ends and D or L forms follow the SMILES beside them."}
{"smiles": "CC(=O)N[C@@H](CC(C)C)C(=O)N[C@@H](CCCNC(=N)N)C(=O)N[C@@H](CCCCN)C(=O)N[C@@H](CC(C)C)C(=O)N[C@@H](CCCNC(=N)N)C(=O)N[C@@H](CCCCN)C(=O)N[C@@H](CCCNC(=N)N)C(=O)N[C@@H](CC(C)C)C(=O)N[C@@H](CC(C)C)C(=O)N[C@@H](CC(C)C)C(=O)N[C@@H](CCCNC(=N)N)C(=O)N[C@@H](CCCCN)C(=O)N[C@@H](CC(C)C)C(=O)N[C@@H](CCCNC(=N)N)C(=O)N[C@@H](CCCCN)C(=O)N[C@@H](CCCNC(=N)N)C(=O)N[C@@H](CC(C)C)C(=O)N[C@@H](CC(C)C)C(N)=O", "note": "[apoEdp, Ac-LRKLRKRLLLRKLRKRLL-amide] (Ac-LRKLRKRLLLRKLRKRLL-NH2)", "values": [{"measurement": "VEGF-induced ocular angiogenesis", "setting": "[1]", "value": "blocks"}, {"measurement": "Expression of heparanase in retina", "setting": "heparanase [2]", "value": "dramatically reduced"}, {"measurement": "Expression of MMP9 in retina", "setting": "MMP9", "value": "dramatically reduced"}, {"measurement": "High glucose-induced expression of heparanase", "setting": "heparanase [3]", "value": "suppressed the expression"}]}
